Measurements from patent publication US6512006B1, “HIV protease inhibitors” (Warner-Lambert Company, priority 1999, dated 2003).
Like-named read-outs stand apart in the source and are kept apart here.

Assays:
[1] = target: T1, Recombinant HIV-1 protease (Human immunodeficiency virus type 1 group M subtype B, UniProt P04585); test: HIV Protease Assay (Ki); format: biochemical; conditions: pH 6.2, 37° C., 40 μM substrate III
T1 construct: Recombinant HIV-1 protease (>96% purity); purchased Bachem Bioscience, Inc. (King of Prussia, Pa.)
Description: Recombinant HIV-1 protease (>96% purity) and HIV protease substrate III (the undecapeptide H-His-Lys-Ala-Arg-Val-Leu-Nph-Glu-Ala-Nle-Ser-NH2, 97% purity) were purchased from Bachem Bioscience, Inc. (King of Prussia, Pa.).
The methods employed follow the procedures of Tummino, et al., Archives of Biochemistry and Biophysics, 1995;316:523). […] (total volume, […]). […] The final inhibitor concentrations used were 0 (0.1, 0.2, in some experiments), 0.5, 1, 2, 5, 10, 20, 50, and 100 μM. The solution was mixed, incubated for 5 minutes and the reaction quenched by addition of trifluoracetic acid, 2% final. The (leu-p-nitro-phe) bond of the substrate is cleaved by the enzyme and substrate and products separated by reverse-phase HPLC (high pressure liquid chromatography). Absorbance was measured at 220 nm, peak areas determined, and percentage conversion to product used to calculate percentage control (=[% conversion (+inhibitor)/% conversion (−inhibitor)]×100).
Ki means inhibitory constant; it approximately the equilibrium binding constant for the binding of the inhibitor to the free enzyme.

[2] = tested on: HIV infected lymphocyte derived CEM cells; test: Cellular Infection Assay, XTT cytopathic procedure in CEM cells (antiviral efficacy); format: cell-based
Description: Compounds were tested in lymphocyte derived CEM cells using the XTT cytopathic procedures and were performed at Southern Research Institute (Buckheit, et al., Antiviral Res., 1993;21:247; see also Weislow, et al., J. Nat. Cancer Inst., 1989;81:577). Compound concentrations were 0.32, 1, 3.2, 10, 32, and 100 μM. The EC50 represents the concentration of agent, which reduces HIV cytopathic effects 50% relative to untreated control. Cellular toxicity of the agents are estimated from the TC50 which represents the concentration of the agent which inhibits 50% of the viability of uninfected cells.
EC50 indicates the concentration of the drug which provide 50% protection against HIV.

[3] = tested on: uninfected CEM cells; test: Cellular toxicity in uninfected CEM cells (XTT); format: cell-based; conditions: cytotoxicity in 50% of uninfected CEM cells; read-out: TC50 (the source's name)
Description: Compound concentrations were 0.32, 1, 3.2, 10, 32, and 100 μM.

CCCN(C1=C(O)CC(CCc2ccc(O)cc2)(C(C)C)OC1=O)c1cccc(NS(=O)(=O)c2ccc(C(F)(F)F)cn2)c1 (stereo not shown) [Example 2, 5-Trifluoromethyl-pyridine-2-sulfonic acid [3-({4-hydroxy-6-[2-(4-hydroxy-phenyl)-ethyl]-6-isopropyl-2-oxo-5,6-dihydro-2H-pyran-3-yl}-propyl-amino)-phenyl]-amide]
Ki ([1]; Inhibition of HIV Protease Ki): 0.083 nM | EC50 ([2]; read-out: Antiviral Efficacy EC50; CEM cells, 50% protection against HIV cytopathic effects): 1000 nM | CC50 [3]: 71000 nM | melting point: 107 to 110 °C

Pyridine-2-sulfonic acid [3-({4-hydroxy-6-[2-(4-hydroxy-phenyl)-ethyl]-6-isopropyl-2-oxo-5,6-dihydro-2H-pyran-3-yl}-propyl-amino)-phenyl]-amide [Example 14]
Ki ([1]; read-out: Inhibition of HIV Protease Ki): 0.54 nM | EC50 ([2]; CEM cells, 50% protection against HIV cytopathic effects; read-out: Antiviral Efficacy EC50): 1600 nM | CC50 [3]: 210000 nM
